Laboratory results from ChEMBL document CHEMBL4017512 (J Med Chem, 2017).

Assays:
[1] = test system: HCT-116; assay: Antiproliferative activity against human HCT116 cells after 72 hrs by phosphatase assay; assay type: functional, cell-based; conditions: HCT-116, 72 h
[2] = test system: L1210; assay: Antiproliferative activity against mouse L1210 cells after 72 hrs by phosphatase assay; assay type: functional, cell-based; conditions: L1210, 72 h
[3] = Cytotoxicity against human HCT116/VM46 cells assessed as reduction in cell viability after 72 hrs by phosphatase assay; assay type: cell-based; conditions: HCT-116/VM46, 72 h

Row | SMILES | IC50 [1] | IC50 [2] | IC50 [3]
1 | CC[C@]1(NC(=O)c2ccc(F)cc2)C[C@H]2CN(CCc3c([nH]c4ccccc34)[C@@](C(=O)OC)(c3cc4c(cc3OC)N(C)[C@H]3[C@@](O)(C(=O)OC)[C@H](OC(C)=O)[C@]5(CC)C=CCN6CC[C@]43[C@@H]65)C2)C1 | 1.4 nM | 1.8 nM | 25 nM
2 | CC[C@]1(NC(=O)c2cocn2)C[C@H]2CN(CCc3c([nH]c4ccccc34)[C@@](C(=O)OC)(c3cc4c(cc3OC)N(C)[C@H]3[C@@](O)(C(=O)OC)[C@H](OC(C)=O)[C@]5(CC)C=CCN6CC[C@]43[C@@H]65)C2)C1 | 4 nM | 4.5 nM | 90 nM
3 | CC[C@]1(NC(=O)C(C)C)C[C@H]2CN(CCc3c([nH]c4ccccc34)[C@@](C(=O)OC)(c3cc4c(cc3OC)N(C)[C@H]3[C@@](O)(C(=O)OC)[C@H](OC(C)=O)[C@]5(CC)C=CCN6CC[C@]43[C@@H]65)C2)C1 | 90 nM | 70 nM | 1400 nM
4 | CC[C@]1(NC(=O)c2cccc(C(C)C)c2)C[C@H]2CN(CCc3c([nH]c4ccccc34)[C@@](C(=O)OC)(c3cc4c(cc3OC)N(C)[C@H]3[C@@](O)(C(=O)OC)[C@H](OC(C)=O)[C@]5(CC)C=CCN6CC[C@]43[C@@H]65)C2)C1 | 8.7 nM | 7.5 nM | 65 nM
5 | CC[C@]1(NC(=O)c2ccc(CNC(=O)OC(C)(C)C)cc2)C[C@H]2CN(CCc3c([nH]c4ccccc34)[C@@](C(=O)OC)(c3cc4c(cc3OC)N(C)[C@H]3[C@@](O)(C(=O)OC)[C@H](OC(C)=O)[C@]5(CC)C=CCN6CC[C@]43[C@@H]65)C2)C1 | 0.7 nM | 0.76 nM | 50 nM
6 | CC[C@]1(NC(=O)c2cc(OC)c(OC)c(OC)c2)C[C@H]2CN(CCc3c([nH]c4ccccc34)[C@@](C(=O)OC)(c3cc4c(cc3OC)N(C)[C@H]3[C@@](O)(C(=O)OC)[C@H](OC(C)=O)[C@]5(CC)C=CCN6CC[C@]43[C@@H]65)C2)C1 | 0.1 nM | 0.09 nM | 2.4 nM
7 | CC[C@]1(NC(=O)c2cnc3ccccc3n2)C[C@H]2CN(CCc3c([nH]c4ccccc34)[C@@](C(=O)OC)(c3cc4c(cc3OC)N(C)[C@H]3[C@@](O)(C(=O)OC)[C@H](OC(C)=O)[C@]5(CC)C=CCN6CC[C@]43[C@@H]65)C2)C1 | 5.9 nM | 6.2 nM | 60 nM
8 | CC[C@]1(NC(=O)c2ccc3c(c2)CCC3)C[C@H]2CN(CCc3c([nH]c4ccccc34)[C@@](C(=O)OC)(c3cc4c(cc3OC)N(C)[C@H]3[C@@](O)(C(=O)OC)[C@H](OC(C)=O)[C@]5(CC)C=CCN6CC[C@]43[C@@H]65)C2)C1 | 5.6 nM | 5 nM | 11 nM
9 | CC[C@]1(NC(=O)c2cccc(F)c2)C[C@H]2CN(CCc3c([nH]c4ccccc34)[C@@](C(=O)OC)(c3cc4c(cc3OC)N(C)[C@H]3[C@@](O)(C(=O)OC)[C@H](OC(C)=O)[C@]5(CC)C=CCN6CC[C@]43[C@@H]65)C2)C1 | 5.3 nM | 5.7 nM | 25 nM
10 | CC[C@]1(NC(=O)c2ccc(C)c(OC)c2)C[C@H]2CN(CCc3c([nH]c4ccccc34)[C@@](C(=O)OC)(c3cc4c(cc3OC)N(C)[C@H]3[C@@](O)(C(=O)OC)[C@H](OC(C)=O)[C@]5(CC)C=CCN6CC[C@]43[C@@H]65)C2)C1 | 3.3 nM | 4.2 nM | 6.9 nM
11 | CC[C@]1(NC(=O)c2ccc(C(C)(C)C)cc2)C[C@H]2CN(CCc3c([nH]c4ccccc34)[C@@](C(=O)OC)(c3cc4c(cc3OC)N(C)[C@H]3[C@@](O)(C(=O)OC)[C@H](OC(C)=O)[C@]5(CC)C=CCN6CC[C@]43[C@@H]65)C2)C1 | 1.9 nM | 0.6 nM | 55 nM
12 | CC[C@]1(NC(=O)c2ccc3occc3c2)C[C@H]2CN(CCc3c([nH]c4ccccc34)[C@@](C(=O)OC)(c3cc4c(cc3OC)N(C)[C@H]3[C@@](O)(C(=O)OC)[C@H](OC(C)=O)[C@]5(CC)C=CCN6CC[C@]43[C@@H]65)C2)C1 | 3.8 nM | 5 nM | 25 nM
13 | CC[C@]1(NC(=O)c2cccc(C)c2)C[C@H]2CN(CCc3c([nH]c4ccccc34)[C@@](C(=O)OC)(c3cc4c(cc3OC)N(C)[C@H]3[C@@](O)(C(=O)OC)[C@H](OC(C)=O)[C@]5(CC)C=CCN6CC[C@]43[C@@H]65)C2)C1 | 0.7 nM | 0.5 nM | 3 nM
14 | CC[C@]1(NC(=O)c2ccc(OC)c(C)c2)C[C@H]2CN(CCc3c([nH]c4ccccc34)[C@@](C(=O)OC)(c3cc4c(cc3OC)N(C)[C@H]3[C@@](O)(C(=O)OC)[C@H](OC(C)=O)[C@]5(CC)C=CCN6CC[C@]43[C@@H]65)C2)C1 | 0.7 nM | 0.6 nM | 5.2 nM
15 | CC[C@]1(NC(=O)c2ccc(C3CCCCC3)cc2)C[C@H]2CN(CCc3c([nH]c4ccccc34)[C@@](C(=O)OC)(c3cc4c(cc3OC)N(C)[C@H]3[C@@](O)(C(=O)OC)[C@H](OC(C)=O)[C@]5(CC)C=CCN6CC[C@]43[C@@H]65)C2)C1 | 30 nM | 40 nM | 60 nM
16 | CC[C@]1(NC(=O)c2cscn2)C[C@H]2CN(CCc3c([nH]c4ccccc34)[C@@](C(=O)OC)(c3cc4c(cc3OC)N(C)[C@H]3[C@@](O)(C(=O)OC)[C@H](OC(C)=O)[C@]5(CC)C=CCN6CC[C@]43[C@@H]65)C2)C1 | 6.3 nM | 5.6 nM | 80 nM
17 | CC[C@]1(NC(=O)C2CCc3ccccc3C2)C[C@H]2CN(CCc3c([nH]c4ccccc34)[C@@](C(=O)OC)(c3cc4c(cc3OC)N(C)[C@H]3[C@@](O)(C(=O)OC)[C@H](OC(C)=O)[C@]5(CC)C=CCN6CC[C@]43[C@@H]65)C2)C1 (some centres not stated) | 580 nM | 420 nM | 960 nM
18 | CCCc1ccc(C(=O)N[C@@]2(CC)C[C@H]3CN(CCc4c([nH]c5ccccc45)[C@@](C(=O)OC)(c4cc5c(cc4OC)N(C)[C@H]4[C@@](O)(C(=O)OC)[C@H](OC(C)=O)[C@]6(CC)C=CCN7CC[C@]54[C@@H]76)C3)C2)cc1 | 4.8 nM | 4.3 nM | 35 nM
19 | CC[C@]1(NC(=O)c2cc(C)c(OCc3ccccc3)c(C)c2)C[C@H]2CN(CCc3c([nH]c4ccccc34)[C@@](C(=O)OC)(c3cc4c(cc3OC)N(C)[C@H]3[C@@](O)(C(=O)OC)[C@H](OC(C)=O)[C@]5(CC)C=CCN6CC[C@]43[C@@H]65)C2)C1 | 30 nM | 30 nM | 80 nM
20 | CC[C@]1(NC(=O)c2cc(C)c(OC)c(C)c2)C[C@H]2CN(CCc3c([nH]c4ccccc34)[C@@](C(=O)OC)(c3cc4c(cc3OC)N(C)[C@H]3[C@@](O)(C(=O)OC)[C@H](OC(C)=O)[C@]5(CC)C=CCN6CC[C@]43[C@@H]65)C2)C1 | 0.65 nM | 0.5 nM | 3.5 nM
21 | CC[C@]1(NC(=O)c2cccnc2)C[C@H]2CN(CCc3c([nH]c4ccccc34)[C@@](C(=O)OC)(c3cc4c(cc3OC)N(C)[C@H]3[C@@](O)(C(=O)OC)[C@H](OC(C)=O)[C@]5(CC)C=CCN6CC[C@]43[C@@H]65)C2)C1 | 0.6 nM | 0.7 nM | 50 nM
22 | CC[C@]1(NC(=O)c2ccc3c(c2)C(C)(C)CCC3(C)C)C[C@H]2CN(CCc3c([nH]c4ccccc34)[C@@](C(=O)OC)(c3cc4c(cc3OC)N(C)[C@H]3[C@@](O)(C(=O)OC)[C@H](OC(C)=O)[C@]5(CC)C=CCN6CC[C@]43[C@@H]65)C2)C1 | 7.8 nM | 7.4 nM | 50 nM
23 | CC[C@]1(NC(=O)c2ccc(OC(F)F)cc2)C[C@H]2CN(CCc3c([nH]c4ccccc34)[C@@](C(=O)OC)(c3cc4c(cc3OC)N(C)[C@H]3[C@@](O)(C(=O)OC)[C@H](OC(C)=O)[C@]5(CC)C=CCN6CC[C@]43[C@@H]65)C2)C1 | 1.7 nM | 5.9 nM | 17 nM
24 | CC[C@]1(NC(=O)c2cncn2C)C[C@H]2CN(CCc3c([nH]c4ccccc34)[C@@](C(=O)OC)(c3cc4c(cc3OC)N(C)[C@H]3[C@@](O)(C(=O)OC)[C@H](OC(C)=O)[C@]5(CC)C=CCN6CC[C@]43[C@@H]65)C2)C1 | 2.2 nM | 4 nM | 80 nM
25 | CC[C@]1(NC(=O)c2cnc3ccccc3c2)C[C@H]2CN(CCc3c([nH]c4ccccc34)[C@@](C(=O)OC)(c3cc4c(cc3OC)N(C)[C@H]3[C@@](O)(C(=O)OC)[C@H](OC(C)=O)[C@]5(CC)C=CCN6CC[C@]43[C@@H]65)C2)C1 | 0.6 nM | 0.7 nM | 5.7 nM
26 | CC[C@]1(NC(=O)c2ccc(OC)c(OC)c2)C[C@H]2CN(CCc3c([nH]c4ccccc34)[C@@](C(=O)OC)(c3cc4c(cc3OC)N(C)[C@H]3[C@@](O)(C(=O)OC)[C@H](OC(C)=O)[C@]5(CC)C=CCN6CC[C@]43[C@@H]65)C2)C1 | 0.07 nM | 0.06 nM | 1.4 nM
27 | CC[C@]1(NC(=O)c2cc3ccccc3s2)C[C@H]2CN(CCc3c([nH]c4ccccc34)[C@@](C(=O)OC)(c3cc4c(cc3OC)N(C)[C@H]3[C@@](O)(C(=O)OC)[C@H](OC(C)=O)[C@]5(CC)C=CCN6CC[C@]43[C@@H]65)C2)C1 | 1.9 nM | 3.1 nM | 9.2 nM
28 | CC[C@]1(NC(=O)c2ccc3c(c2)OCO3)C[C@H]2CN(CCc3c([nH]c4ccccc34)[C@@](C(=O)OC)(c3cc4c(cc3OC)N(C)[C@H]3[C@@](O)(C(=O)OC)[C@H](OC(C)=O)[C@]5(CC)C=CCN6CC[C@]43[C@@H]65)C2)C1 | 0.8 nM | 0.6 nM | 8.7 nM
29 | CC[C@]1(NC(=O)c2ccccn2)C[C@H]2CN(CCc3c([nH]c4ccccc34)[C@@](C(=O)OC)(c3cc4c(cc3OC)N(C)[C@H]3[C@@](O)(C(=O)OC)[C@H](OC(C)=O)[C@]5(CC)C=CCN6CC[C@]43[C@@H]65)C2)C1 | 50 nM | 55 nM | 460 nM
